Reference: ChEMBL document CHEMBL4507293 (2021)

Experiments:
[1] = system: Epidermal growth factor receptor (Homo sapiens), P00533 [L861Q]; settings: Compound concentration 100.0 nM
[2] = biological target: Cyclin-dependent kinase 14 (Homo sapiens) (UniProt O94921); settings: Compound concentration 100.0 nM
[3] = biological target: 5'-AMP-activated protein kinase catalytic subunit alpha-2 (Homo sapiens) (UniProt P54646); settings: Compound concentration 100.0 nM
[4] = biological target: Dual specificity mitogen-activated protein kinase kinase 7 (Homo sapiens) (UniProt O14733); settings: Compound concentration 100.0 nM
[5] = system: Receptor-type tyrosine-protein kinase FLT3 (Homo sapiens), P36888 [R834Q]; settings: Compound concentration 100.0 nM
[6] = biological target: ALK tyrosine kinase receptor (Homo sapiens) (UniProt Q9UM73); settings: Compound concentration 100.0 nM
[7] = biological target: Epithelial discoidin domain-containing receptor 1 (Homo sapiens) (UniProt Q08345); settings: Compound concentration 100.0 nM
[8] = biological target: MAP/microtubule affinity-regulating kinase 3 (Homo sapiens) (UniProt P27448); settings: Compound concentration 100.0 nM
[9] = biological target: Serine/threonine-protein kinase Nek5 (Homo sapiens) (UniProt Q6P3R8); settings: Compound concentration 100.0 nM
[10] = biological target: Ribosomal protein S6 kinase alpha-6 (Homo sapiens) (UniProt Q9UK32); settings: Compound concentration 100.0 nM
[11] = biological target: Tyrosine-protein kinase Fes/Fps (Homo sapiens) (UniProt P07332); settings: Compound concentration 100.0 nM
[12] = system: Mast/stem cell growth factor receptor Kit (Homo sapiens), P10721 [A829P]; settings: Compound concentration 100.0 nM
[13] = biological target: T1, Alpha-1A adrenergic receptor (Homo sapiens) (UniProt P35348); settings: Compound concentration 10.0 uM
T1 sequence (whole entry): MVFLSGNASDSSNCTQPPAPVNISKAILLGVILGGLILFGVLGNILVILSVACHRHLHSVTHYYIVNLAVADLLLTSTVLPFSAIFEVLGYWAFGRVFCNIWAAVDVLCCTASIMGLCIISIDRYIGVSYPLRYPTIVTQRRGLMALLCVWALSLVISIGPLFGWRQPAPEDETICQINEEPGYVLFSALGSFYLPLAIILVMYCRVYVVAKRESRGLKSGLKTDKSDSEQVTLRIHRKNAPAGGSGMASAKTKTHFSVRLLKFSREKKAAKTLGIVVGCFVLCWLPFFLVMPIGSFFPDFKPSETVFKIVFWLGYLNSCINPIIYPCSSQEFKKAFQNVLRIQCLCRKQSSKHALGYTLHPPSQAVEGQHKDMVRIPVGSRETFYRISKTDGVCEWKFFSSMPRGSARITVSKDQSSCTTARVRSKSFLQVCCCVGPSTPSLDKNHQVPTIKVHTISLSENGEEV

[14] = biological target: Casein kinase I isoform gamma-3 (Homo sapiens) (UniProt Q9Y6M4); settings: Compound concentration 100.0 nM
Sequence of Casein kinase I isoform gamma-3 (Homo sapiens) (Q9Y6M4 whole entry, looked up, canonical isoform): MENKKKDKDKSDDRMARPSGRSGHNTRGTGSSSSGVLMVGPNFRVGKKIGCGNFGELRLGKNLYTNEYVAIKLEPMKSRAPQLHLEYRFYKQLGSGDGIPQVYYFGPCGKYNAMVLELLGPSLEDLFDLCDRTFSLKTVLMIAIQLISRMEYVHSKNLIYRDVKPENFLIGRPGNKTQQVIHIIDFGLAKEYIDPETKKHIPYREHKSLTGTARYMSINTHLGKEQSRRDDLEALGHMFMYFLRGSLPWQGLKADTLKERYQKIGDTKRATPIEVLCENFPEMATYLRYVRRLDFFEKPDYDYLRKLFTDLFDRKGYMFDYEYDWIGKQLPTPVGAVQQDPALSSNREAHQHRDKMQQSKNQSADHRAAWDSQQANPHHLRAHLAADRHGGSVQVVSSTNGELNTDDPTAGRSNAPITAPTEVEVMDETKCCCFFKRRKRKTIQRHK

[15] = biological target: Fibroblast growth factor receptor 1 (Homo sapiens) (UniProt P11362); settings: Compound concentration 100.0 nM
Sequence of Fibroblast growth factor receptor 1 (Homo sapiens) (P11362 22-822 limits assumed): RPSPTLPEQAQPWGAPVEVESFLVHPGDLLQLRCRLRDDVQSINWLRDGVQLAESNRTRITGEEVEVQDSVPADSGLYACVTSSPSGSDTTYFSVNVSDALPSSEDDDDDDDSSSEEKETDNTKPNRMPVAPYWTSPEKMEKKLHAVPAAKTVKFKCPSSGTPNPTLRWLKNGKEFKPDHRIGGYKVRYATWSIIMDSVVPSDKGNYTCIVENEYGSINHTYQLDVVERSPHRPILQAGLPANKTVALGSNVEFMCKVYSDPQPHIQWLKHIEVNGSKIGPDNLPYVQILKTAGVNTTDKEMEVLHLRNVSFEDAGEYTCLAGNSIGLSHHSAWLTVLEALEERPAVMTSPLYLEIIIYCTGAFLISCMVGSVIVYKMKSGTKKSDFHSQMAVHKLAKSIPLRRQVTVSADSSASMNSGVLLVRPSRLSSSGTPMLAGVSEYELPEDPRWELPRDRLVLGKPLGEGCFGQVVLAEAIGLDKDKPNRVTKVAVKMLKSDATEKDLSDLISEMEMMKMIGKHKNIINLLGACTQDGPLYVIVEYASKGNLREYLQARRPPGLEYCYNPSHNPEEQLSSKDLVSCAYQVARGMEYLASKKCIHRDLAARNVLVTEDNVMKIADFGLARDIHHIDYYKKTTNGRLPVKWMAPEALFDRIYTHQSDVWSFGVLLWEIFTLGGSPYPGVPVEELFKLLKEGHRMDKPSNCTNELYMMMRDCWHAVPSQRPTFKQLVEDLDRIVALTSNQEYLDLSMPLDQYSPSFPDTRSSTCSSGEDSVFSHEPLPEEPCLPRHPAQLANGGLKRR

[16] = biological target: Dual 3',5'-cyclic-AMP and -GMP phosphodiesterase 11A (Homo sapiens, UniProt Q9HCR9); experiment: Biochemical assay (PDE11A)
Sequence of Dual 3',5'-cyclic-AMP and -GMP phosphodiesterase 11A (Q9HCR9 whole entry): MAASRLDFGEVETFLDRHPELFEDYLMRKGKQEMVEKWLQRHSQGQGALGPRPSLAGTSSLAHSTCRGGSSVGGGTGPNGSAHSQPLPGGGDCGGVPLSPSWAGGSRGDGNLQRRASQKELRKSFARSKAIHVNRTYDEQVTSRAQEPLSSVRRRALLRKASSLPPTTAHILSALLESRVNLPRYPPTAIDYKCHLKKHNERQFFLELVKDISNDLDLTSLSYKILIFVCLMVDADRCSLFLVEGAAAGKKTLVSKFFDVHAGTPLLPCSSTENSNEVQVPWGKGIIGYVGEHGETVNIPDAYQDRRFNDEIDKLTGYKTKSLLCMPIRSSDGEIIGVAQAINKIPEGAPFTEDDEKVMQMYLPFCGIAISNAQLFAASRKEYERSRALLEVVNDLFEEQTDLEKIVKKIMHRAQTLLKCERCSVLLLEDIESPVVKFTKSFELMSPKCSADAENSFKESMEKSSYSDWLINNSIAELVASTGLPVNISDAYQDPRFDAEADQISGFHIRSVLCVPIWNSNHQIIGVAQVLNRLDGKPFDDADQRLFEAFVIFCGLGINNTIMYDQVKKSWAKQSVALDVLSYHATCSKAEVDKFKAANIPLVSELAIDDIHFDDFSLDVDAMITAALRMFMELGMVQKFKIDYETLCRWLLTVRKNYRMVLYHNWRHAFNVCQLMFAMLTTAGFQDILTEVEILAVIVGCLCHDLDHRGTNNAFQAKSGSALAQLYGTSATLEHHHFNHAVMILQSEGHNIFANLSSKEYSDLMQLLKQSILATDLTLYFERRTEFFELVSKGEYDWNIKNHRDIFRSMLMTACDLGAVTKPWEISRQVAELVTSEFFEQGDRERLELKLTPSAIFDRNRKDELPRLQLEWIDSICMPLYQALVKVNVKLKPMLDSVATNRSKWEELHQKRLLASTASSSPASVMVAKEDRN

[17] = biological target: Death-associated protein kinase 1 (Homo sapiens) (UniProt P53355); settings: Compound concentration 100.0 nM
[18] = biological target: Peripheral plasma membrane protein CASK (Homo sapiens) (UniProt O14936); settings: Compound concentration 100.0 nM
[19] = biological target: Protein kinase C epsilon type (Homo sapiens) (UniProt Q02156); settings: Compound concentration 100.0 nM
[20] = biological target: Muscle, skeletal receptor tyrosine-protein kinase (Homo sapiens) (UniProt O15146); settings: Compound concentration 100.0 nM
[21] = biological target: Serine/threonine-protein kinase SIK1 (Homo sapiens) (UniProt P57059); settings: Compound concentration 100.0 nM
Sequence of Serine/threonine-protein kinase SIK1 (Homo sapiens) (P57059 whole entry): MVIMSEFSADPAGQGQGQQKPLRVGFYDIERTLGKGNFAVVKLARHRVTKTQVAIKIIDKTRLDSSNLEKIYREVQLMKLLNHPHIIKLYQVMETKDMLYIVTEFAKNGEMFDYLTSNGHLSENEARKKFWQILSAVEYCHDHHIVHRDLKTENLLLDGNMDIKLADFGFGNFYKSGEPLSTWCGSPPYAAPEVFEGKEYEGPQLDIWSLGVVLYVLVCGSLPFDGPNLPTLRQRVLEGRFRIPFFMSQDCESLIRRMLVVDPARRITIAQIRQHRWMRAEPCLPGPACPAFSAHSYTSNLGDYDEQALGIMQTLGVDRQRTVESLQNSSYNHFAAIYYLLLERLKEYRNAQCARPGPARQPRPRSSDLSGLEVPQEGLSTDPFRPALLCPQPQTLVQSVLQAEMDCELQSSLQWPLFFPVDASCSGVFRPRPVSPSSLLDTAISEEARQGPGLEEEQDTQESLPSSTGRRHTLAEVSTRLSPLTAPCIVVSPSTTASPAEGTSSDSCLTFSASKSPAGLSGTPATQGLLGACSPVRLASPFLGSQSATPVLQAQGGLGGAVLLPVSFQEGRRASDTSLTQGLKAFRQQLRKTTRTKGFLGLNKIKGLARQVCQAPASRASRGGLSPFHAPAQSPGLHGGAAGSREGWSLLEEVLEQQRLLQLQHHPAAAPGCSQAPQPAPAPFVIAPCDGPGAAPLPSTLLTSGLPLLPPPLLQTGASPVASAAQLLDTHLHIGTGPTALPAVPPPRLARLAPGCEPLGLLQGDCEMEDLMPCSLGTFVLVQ

[22] = biological target: Activin receptor type-2B (Homo sapiens) (UniProt Q13705); settings: Compound concentration 100.0 nM
Sequence of Activin receptor type-2B (Homo sapiens) (Q13705 whole entry): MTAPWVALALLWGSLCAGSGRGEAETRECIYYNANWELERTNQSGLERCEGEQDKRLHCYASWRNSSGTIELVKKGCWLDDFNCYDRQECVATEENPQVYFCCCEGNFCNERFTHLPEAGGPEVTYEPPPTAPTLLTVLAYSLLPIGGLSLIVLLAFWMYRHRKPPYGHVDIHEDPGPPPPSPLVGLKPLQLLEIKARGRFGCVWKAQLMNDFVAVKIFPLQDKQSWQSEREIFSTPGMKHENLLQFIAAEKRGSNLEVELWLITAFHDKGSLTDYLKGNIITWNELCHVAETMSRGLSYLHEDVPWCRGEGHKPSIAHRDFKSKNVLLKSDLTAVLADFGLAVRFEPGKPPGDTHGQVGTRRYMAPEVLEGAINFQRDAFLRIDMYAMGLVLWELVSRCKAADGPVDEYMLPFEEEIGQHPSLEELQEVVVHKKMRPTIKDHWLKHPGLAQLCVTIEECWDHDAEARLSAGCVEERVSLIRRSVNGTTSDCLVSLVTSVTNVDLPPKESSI

[23] = biological target: Serine/threonine-protein kinase ULK3 (Homo sapiens) (UniProt Q6PHR2); settings: Compound concentration 100.0 nM
[24] = biological target: Serine/threonine-protein kinase Sgk3 (Homo sapiens) (UniProt Q96BR1); settings: Compound concentration 100.0 nM
Sequence of Serine/threonine-protein kinase Sgk3 (Homo sapiens) (Q96BR1 whole entry): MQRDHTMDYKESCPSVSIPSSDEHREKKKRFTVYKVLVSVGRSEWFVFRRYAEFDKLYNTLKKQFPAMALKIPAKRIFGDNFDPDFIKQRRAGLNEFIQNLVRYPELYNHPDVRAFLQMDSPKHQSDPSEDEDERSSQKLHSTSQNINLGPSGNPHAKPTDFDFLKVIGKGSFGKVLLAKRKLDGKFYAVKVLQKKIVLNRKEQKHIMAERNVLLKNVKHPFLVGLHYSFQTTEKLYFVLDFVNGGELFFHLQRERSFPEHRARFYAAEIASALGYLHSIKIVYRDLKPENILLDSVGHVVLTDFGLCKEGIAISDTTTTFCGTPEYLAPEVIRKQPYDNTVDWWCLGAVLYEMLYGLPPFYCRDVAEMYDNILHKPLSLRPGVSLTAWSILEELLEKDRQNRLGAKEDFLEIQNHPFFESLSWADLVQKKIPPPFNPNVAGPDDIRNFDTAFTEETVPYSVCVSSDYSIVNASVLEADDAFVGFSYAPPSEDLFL

[25] = biological target: Cyclin-dependent kinase 11B (Homo sapiens) (UniProt P21127); settings: Compound concentration 100.0 nM
[26] = biological target: Death-associated protein kinase 3 (Homo sapiens) (UniProt O43293); settings: Compound concentration 100.0 nM
[27] = system: Tyrosine-protein kinase ABL1 (Homo sapiens), P00519 [M351T]; settings: Compound concentration 100.0 nM
[28] = biological target: T2, Alpha-2B adrenergic receptor (Homo sapiens) (UniProt P18089); settings: Compound concentration 10.0 uM
T2 sequence (whole entry): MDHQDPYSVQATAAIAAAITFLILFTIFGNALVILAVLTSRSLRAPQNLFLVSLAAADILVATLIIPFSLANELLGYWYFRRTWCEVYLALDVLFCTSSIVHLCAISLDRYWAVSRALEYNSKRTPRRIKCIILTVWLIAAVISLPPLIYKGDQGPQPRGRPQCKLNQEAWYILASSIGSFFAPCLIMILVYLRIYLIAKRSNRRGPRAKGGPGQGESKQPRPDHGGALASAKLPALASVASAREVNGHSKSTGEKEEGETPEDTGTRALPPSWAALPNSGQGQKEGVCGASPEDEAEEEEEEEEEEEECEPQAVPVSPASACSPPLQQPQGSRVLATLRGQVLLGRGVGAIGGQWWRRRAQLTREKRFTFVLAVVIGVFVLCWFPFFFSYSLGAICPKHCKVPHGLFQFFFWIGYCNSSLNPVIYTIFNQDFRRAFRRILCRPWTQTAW

[29] = system: Proto-oncogene tyrosine-protein kinase receptor Ret (Homo sapiens), P07949 [V804L]; settings: Compound concentration 100.0 nM
[30] = biological target: cAMP-dependent protein kinase catalytic subunit PRKX (Homo sapiens) (UniProt P51817); settings: Compound concentration 100.0 nM
[31] = biological target: Mitogen-activated protein kinase 1 (Homo sapiens) (UniProt P28482); settings: Compound concentration 100.0 nM
[32] = biological target: Serine/threonine-protein kinase PLK2 (Homo sapiens) (UniProt Q9NYY3); settings: Compound concentration 100.0 nM
[33] = system: Receptor-type tyrosine-protein kinase FLT3 (Homo sapiens), P36888 [K663Q]; settings: Compound concentration 100.0 nM

Sequence of Cyclin-dependent kinase 14 (Homo sapiens) (O94921 whole entry): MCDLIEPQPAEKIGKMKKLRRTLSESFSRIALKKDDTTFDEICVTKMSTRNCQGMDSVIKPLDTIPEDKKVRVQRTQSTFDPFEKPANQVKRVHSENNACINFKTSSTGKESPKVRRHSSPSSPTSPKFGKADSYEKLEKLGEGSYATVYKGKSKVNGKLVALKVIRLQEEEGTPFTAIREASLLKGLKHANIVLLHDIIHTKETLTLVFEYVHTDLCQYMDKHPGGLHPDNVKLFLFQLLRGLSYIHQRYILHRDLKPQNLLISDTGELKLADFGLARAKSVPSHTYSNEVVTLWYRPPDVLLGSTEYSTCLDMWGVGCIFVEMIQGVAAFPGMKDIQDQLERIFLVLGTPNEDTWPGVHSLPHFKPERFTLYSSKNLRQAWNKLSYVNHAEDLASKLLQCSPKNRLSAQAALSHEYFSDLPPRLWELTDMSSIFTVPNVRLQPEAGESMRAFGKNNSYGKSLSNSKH
Sequence of 5'-AMP-activated protein kinase catalytic subunit alpha-2 (Homo sapiens) (P54646 whole entry, looked up): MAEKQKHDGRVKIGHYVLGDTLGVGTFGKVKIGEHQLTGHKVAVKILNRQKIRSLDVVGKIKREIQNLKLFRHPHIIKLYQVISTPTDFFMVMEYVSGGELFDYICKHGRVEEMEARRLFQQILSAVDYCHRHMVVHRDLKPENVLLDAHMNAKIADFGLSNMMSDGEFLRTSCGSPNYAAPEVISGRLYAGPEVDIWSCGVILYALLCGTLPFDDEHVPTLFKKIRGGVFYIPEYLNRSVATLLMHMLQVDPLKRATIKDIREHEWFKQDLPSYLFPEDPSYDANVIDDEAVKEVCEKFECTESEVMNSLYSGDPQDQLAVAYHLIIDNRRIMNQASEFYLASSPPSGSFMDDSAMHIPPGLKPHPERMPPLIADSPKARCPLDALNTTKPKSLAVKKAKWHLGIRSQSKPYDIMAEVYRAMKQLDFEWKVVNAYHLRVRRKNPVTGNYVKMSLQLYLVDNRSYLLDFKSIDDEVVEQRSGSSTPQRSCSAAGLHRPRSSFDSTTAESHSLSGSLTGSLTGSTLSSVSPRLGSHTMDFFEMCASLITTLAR

Structure (SMILES) | residual activity [1] [%] | residual activity [2] [%] | residual activity [3] [%] | residual activity [4] [%] | residual activity [5] [%] | residual activity [6] [%] | residual activity [7] [%] | residual activity [8] [%] | residual activity [9] [%] | residual activity [10] [%] | residual activity [11] [%] | residual activity [12] [%] | inhibition [13] [%] | residual activity [14] [%] | residual activity [15] [%] | Ki [16] | residual activity [17] [%] | residual activity [18] [%] | residual activity [19] [%] | residual activity [20] [%] | further results
CC(C)CC(=O)N1CCc2nc(-c3ccc(Br)cc3)nc(N(C)Cc3ccccc3)c2C1 [THPP-1-NC] | 100 | 100 | 100 | 79 | 65 | 91 | 100 | 100 | 100 | 100 | 100 | 97 | -1.11 | 100 | 100 | 8.8 µM (not active) | 100 | 81 | 100 | 100 | residual activity [21]: 91%; residual activity [22]: 100%; residual activity [23]: 89%; residual activity [24]: 100%; residual activity [25]: 100%; residual activity [26]: 100%; residual activity [27]: 100%; inhibition [28]: 29%; residual activity [29]: 100%; residual activity [30]: 100%; residual activity [31]: 93%; residual activity [32]: 100%; residual activity [33]: 100%
COCCOc1nc(-c2ccc(Cl)nc2)nc2c1CN(C(=O)c1ncn3ccccc13)CC2 [THPP-1] | 99 | 100 | 100 | 95 | 65 | 91 | 100 | 100 | 100 | 100 | 100 | 88 | 12.7 | 100 | 100 | 0.298 µM (not active) | 100 | 95 | 89 | 100 | residual activity [21]: 100%; residual activity [22]: 93%; residual activity [23]: 81%; residual activity [24]: 100%; residual activity [25]: 100%; residual activity [26]: 100%; residual activity [27]: 100%; inhibition [28]: -2.32%; residual activity [29]: 100%; residual activity [30]: 100%; residual activity [31]: 95%; residual activity [32]: 100%; residual activity [33]: 100%
